Patent US20040072871A1, “Novel thiophene derivatives, their process of preparation and the pharmaceutical compositions which comprise them” (priority 2002, published 2004)

Experiments:
[1] = Solubility remark on the isolated sodium salt; type: physicochemical; conditions: sodium salt form, remark in the synthesis
Description: 1.2 ml of water and 30.5 mg of lithium hydroxide (5 equivalents) are added to a solution of 118 mg of the compound obtained in the preceding Stage 1 in 1.5 ml of methanol. The reaction medium is stirred at 50° C. for 2 hours and then concentrated under reduced pressure. The residue obtained is taken up in ether and the insoluble material is removed. The ethereal solution, after several treatments with acid and base, results in the formation of a precipitate, which is isolated.

[2] = molecular target: MMP-13 (Homo sapiens, UniProt P45452); experiment: MMP-12 test adapted to MMP-13; type: biochemical
Description: (§1) The inhibitory activity of the compounds of formula (I) with regard to metalloproteinase-12 is evaluated by testing the ability of the compounds of the invention to inhibit the proteolysis of a peptide substrate by MMP-12.
(§2) The inhibitory activity of a compound of formula (I) is expressed as IC50 value, which represents the concentration of inhibitor at which a degree of inhibition of the metalloproteinase of 50% is observed.
(§3) The reaction begins with the sequential addition of 41 μl of substrate FP-1 (final concentration of 10 μM) to a buffer solution of 50 mM of Tris-HCl and 10 mM of CaCl2, which comprises 5 mM of hydroxamic acid and 5 μl of the enzyme diluted in a 0.005% Brij-35 buffer solution. The microplates are incubated for 20 minutes at ambient temperature. The compounds of the invention are tested at concentrations varying from 0.3 to 30 μM.
(§4) The measurement of the amount of proteolysis of the peptide substrate is monitored by a measurement of absorbance at 405 nm using a microplate spectrophotometer, at ambient temperature. The IC50 values are calculated from curves in which the percentage of the catalytic activity relative to the control is represented on the […] and the concentration of inhibitor is represented on the Y axis.
The test described above for the inhibition of MMP-12 is adapted and used to determine the ability of the compounds of formula (I) to inhibit the metalloproteinases MMP-1, MMP-2, MMP-3, MMP-7, MMP-9, MMP-13 and MMP-14. […] More specifically, the compounds of the present invention generally show a selectivity with a factor of greater than 50 with respect to the metalloproteinases mentioned above, except towards MMP-13. Thus, the compounds of the present invention also show an inhibitory activity with regard to MMP-13, making it possible to also use the pharmaceutical compositions comprising one or more compounds of the invention in the treatment of pathologies related to activity of MMP-13. Mention may be made, among these pathologies, by way of indication and without implied limitation, of cancer, osetoporosis, osteoarthritis, arthritis, rheumatoid arthritis, atherosclerosis, multiple sclerosis, cardiac insufficiency, asthma and chronic obstructive pulmonary disease.

[3] = molecular target: MMP-12 (Homo sapiens, UniProt P39900); experiment: In vitro inhibition of proteolysis of fluorogenic peptide substrate FP-1 by MMP-12; type: biochemical; conditions: substrate FP-1 10 μM, 20 minutes at ambient temperature, compounds tested 0.3 to 30 μM
Sequence of MMP-12 (P39900 106-470): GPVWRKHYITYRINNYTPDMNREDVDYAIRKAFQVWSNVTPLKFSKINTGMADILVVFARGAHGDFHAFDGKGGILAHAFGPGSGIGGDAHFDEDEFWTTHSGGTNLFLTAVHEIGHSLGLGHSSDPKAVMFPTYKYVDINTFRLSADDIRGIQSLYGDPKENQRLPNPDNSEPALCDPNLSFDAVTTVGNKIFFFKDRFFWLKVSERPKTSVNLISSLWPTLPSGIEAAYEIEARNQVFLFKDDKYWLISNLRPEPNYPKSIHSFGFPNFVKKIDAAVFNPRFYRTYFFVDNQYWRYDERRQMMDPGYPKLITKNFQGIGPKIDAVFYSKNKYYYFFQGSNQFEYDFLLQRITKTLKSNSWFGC
Description: as §1, §2, §3, §4

## O=C(O)Cc1ccc(-c2ccc(-c3csc(C(=O)NCCN4CCOCC4)c3)cc2)cc1.[Na+] [Example 146, {4′-[5-(2-Morpholin-4-ylethylcarbamoyl)thiophen-3-yl]biphenyl-4-yl}-acetic acid, sodium salt]
[1]
  solubility: very low solubility

## O=C(NCCN1CCOCC1)c1cc(-c2ccc(-c3ccccc3)cc2)cs1 [Example 2, 4-(4-Biphenyl)-N-(2-morpholin-4-ylethyl)thiophene-2carboxamide]
[2]
  IC50: 30 µM
[3]
  IC50: 0.35 µM

## O=C(NCCN1CCOCC1)c1cc(-c2ccc(-c3cccnc3)cc2)cs1 [Example 11, 4-[4-(Pyridin-3yl)phenyl]-N-(2-morpholin-4-ylethyl)thiophene-2-carboxamide]
[2]
  IC50: 4.8 µM
[3]
  IC50: 0.91 µM

## O=C(O)CCc1ccc(NC(=O)c2cc(-c3ccc(OC(F)(F)F)cc3)cs2)nc1 [Example 27]
[2]
  IC50: 6.1 µM
[3]
  IC50: 0.845 µM

## CS(=O)(=O)c1ccc(-c2ccc(-c3csc(C(=O)NCCN4CCOCC4)c3)cc2)cc1 [Example 75, 4-[4-(4-Methylsulphonylphenyl)phenyl]-N-(2-morpholin-4-ylethyl)thiophene2-carboxamide]
[2]
  IC50: 0.27 µM
[3]
  IC50: 0.34 µM

## CC(=O)c1ccc(-c2ccc(-c3csc(C(=O)NCCN4CCOCC4)c3)cc2)cc1 [Example 72, 4-[4-(4-Acetylphenyl)phenyl]-N-(2-morpholin-4-ylethyl)thiophene-2-carboxamide]
[2]
  IC50: 0.13 µM
[3]
  IC50: 0.057 µM

## O=C(NCc1ccc(O)c(C(=O)O)c1)c1cc(-c2ccc(OC(F)(F)F)cc2)cs1 [Example 133, 2-Hydroxy-({[4-(4-trifluoromethoxyphenyl)thien-2-yl]-carboxamido}methyl)benzoic acid]
[2]
  IC50: 2.65 µM
[3]
  IC50: 0.95 µM

## O=C(O)Cc1ccc(NC(=O)c2cc(-c3ccc(OC(F)(F)F)cc3)cs2)cc1 [Example 55, (4-{[4-(4-Trifluoromethoxyphenyl)thien-2-yl]carboxamido}-phenyl)acetic acid]
[2]
  IC50: 15.8 µM
[3]
  IC50: 0.615 µM

## O=C(O)c1ccc(CNC(=O)c2cc(-c3ccc(OC(F)(F)F)cc3)cs2)cc1 [Example 47, 4-({[4-(4-Trifluoromethoxyphenyl)thien-2-yl]carboxamido}-methyl)benzoic acid]
[2]
  IC50: 3.59 µM
[3]
  IC50: 0.436 µM

## CC(=O)c1ccc(-c2ccc(-c3csc(C(=O)NC[C@H]4CC[C@H](C(=O)O)CC4)c3)cc2)cc1 [Example 123, trans-4-[({4-[4-(4-Acetylphenyl)phenyl]thien-2-yl}carboxamido)-methyl]cyclohexanecarboxylic acid]
[2]
  IC50: 0.031 µM
[3]
  IC50: 0.018 µM

## O=C(O)Cc1cccc(CNC(=O)c2cc(-c3ccc(OC(F)(F)F)cc3)cs2)c1 [Example 41, 2-[3-({[4-(4-Trifluoromethoxyphenyl)thien-2-yl]carboxamido}-methyl)phenyl]acetic acid]
[2]
  IC50: 5.17 µM
[3]
  IC50: 0.883 µM

## O=C(O)CC1CCC(CNC(=O)c2cc(-c3ccc(OC(F)(F)F)cc3)cs2)CC1 (centres unmarked) [Example 131, [4-({[4-(4-Trifluoromethoxyphenyl)thien-2-yl]carboxamido}methyl)-cyclohexyl]acetic acid]
[2]
  IC50: 3.3 µM
[3]
  IC50: 0.425 µM
